# Results taken from BindingDB's records for patent US20240351997 (Shanghai Qilu Pharmaceutical Research and Development Centre, 2024).
# Target: T1, Protein mono-ADP-ribosyltransferase TIPARP (Homo sapiens, UniProt Q7Z3E1)
# T1 sequence (Q7Z3E1 whole entry): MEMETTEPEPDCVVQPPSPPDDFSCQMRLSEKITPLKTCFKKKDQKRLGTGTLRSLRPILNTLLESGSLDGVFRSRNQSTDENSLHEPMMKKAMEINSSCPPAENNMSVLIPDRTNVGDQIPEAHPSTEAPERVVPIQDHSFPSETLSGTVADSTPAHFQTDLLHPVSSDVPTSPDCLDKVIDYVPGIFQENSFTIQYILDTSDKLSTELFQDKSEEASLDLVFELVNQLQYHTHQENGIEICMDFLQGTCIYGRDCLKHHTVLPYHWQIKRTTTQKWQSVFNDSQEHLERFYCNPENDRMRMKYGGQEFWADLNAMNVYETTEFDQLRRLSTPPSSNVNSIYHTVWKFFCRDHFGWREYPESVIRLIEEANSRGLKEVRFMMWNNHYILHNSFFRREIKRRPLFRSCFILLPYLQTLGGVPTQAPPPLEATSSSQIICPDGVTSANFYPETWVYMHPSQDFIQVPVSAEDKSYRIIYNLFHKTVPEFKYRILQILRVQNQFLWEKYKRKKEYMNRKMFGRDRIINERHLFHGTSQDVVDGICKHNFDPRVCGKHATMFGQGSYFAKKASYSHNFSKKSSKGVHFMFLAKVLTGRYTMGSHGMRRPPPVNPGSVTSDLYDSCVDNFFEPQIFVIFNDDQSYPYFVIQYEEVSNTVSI
# Assay: In Vitro Enzymology Experiment of PARP2, 3, 5A, 5B, 7, 12, and 15
# Method: 1. Preparation of 384-well histone-coated plate: 25 μL of histone solution was added to each well, and the plate was incubated overnight at 4° C.2. Preparation of PBST buffer, blocking buffer, and assay buffer3. The 384-well histone-coated plate was washed three times with PBST buffer. The plate was blocked by 50 μL of blocking buffer for 1 hour at room temperature. The plate was then washed three times with PBST buffer.4. Compound preparation:2000× compound was prepared in a 96-well source plate. 50 nL of the compound was transferred from the source plate to a 96-well intermediate plate, and 39.95 μL of assay buffer was added to each well. The plate was shaken well and centrifuged at 1000 rpm for 1 minute.5 μL of compound DMSO solution was transferred to each well.5. […] Detection:25 μL of Stre-HRP was added.The plate was incubated at room temperature for 1 hour and washed three times with PBS buffer.25 μL of QuantaRed Enhancer mix was added. The plate was incubated for 10 minutes.2.5 μL of QuantaRed Stop Solution was added to terminate the peroxidase reaction, and the plate was shaken for 10 to 30 seconds.7. […] Data processingUsing equation (1) to fit the data in Excel to obtain inhibition valuesinh%=(Max-Signal)/(Max-Min)*100Equation(1)Using equation (2) to fit the data in XL-Fit to obtain IC50 valuesY=Bottom+(Top-Bottom)/(1+(IC5 0/X)*HillSlopeEquation(2)Y is the percentage of inhibition, and X is the compound concentration.
row,Compound,IC50 [nM]
1,"Nc1cc(C(F)(F)F)cnc1N1CCN(C(=O)OCCc2c[nH]c(=O)c(C(F)(F)F)c2)CC1 [US20240351997, Example 131]",1.3
2,"Cc1cnc(N2C[C@@H](C)N(C(=O)OCCc3c[nH]c(=O)c(C(F)(F)F)c3)C[C@H]2C)nc1 [US20240351997, Example 167]",1.5
3,"C[C@@H]1CN(c2ncc(C3CC3)cn2)[C@H](C)CN1C(=O)OCCc1c[nH]c(=O)c(C(F)(F)F)c1 [US20240351997, Example 180]",1

# Now those with a lower IC50, led by results:
row,IC50 [nM],Compound
1,0.85,"O=C(Oc1cccc(-c2c[nH]c(=O)c(C(F)(F)F)c2)c1)N1CCN(c2ncc(C(F)(F)F)cn2)[C@@H](CO)C1 [US20240351997, Example 141]"
2,0.74,"O=C(Oc1cccc(-c2c[nH]c(=O)c(C(F)(F)F)c2)c1)N1CCN(c2ncc(C(F)(F)F)cn2)[C@H](CO)C1 [US20240351997, Example 142]"
3,0.61,"O=C(Oc1cccc(-c2c[nH]c(=O)c(C(F)(F)F)c2)c1)N1CCN(c2ncc(C(F)(F)F)cn2)[C@@H](CO)C1 [US20240351997, Example 143]"
